Earlier results as cited in patent US20060105068A1, “Dietary supplement formulations containing Hoodia gordonii” (priority 2003, published 2006).

Assays:
[1] = test system: cytochrome P450
[2] = United States; therapeutic range; aspirin and associated compounds
[3] = rats
[4] = after fifteen weeks; 1200 calorie/day diet

Molecule: NC(Cc1cc(I)c(Oc2cc(I)c(O)c(I)c2)c(I)c1)C(=O)O (stereo not drawn) [throxine]
- reduction in CYP450 ([1]; when throxine is increased): 60-80%

Molecule: CC(=O)Oc1ccccc1C(=O)O [aspirin]
- people who die each year [2]: 7,600

Molecule: O=C(O[C@@H]1Cc2c(O)cc(O)cc2O[C@@H]1c1cc(O)c(O)c(O)c1)c1cc(O)c(O)c(O)c1 [epigallocatechin gallate]
- loss of body weight [3]: up to 21%
- decrease in appetite ([3]; after seven days of injections): 60%

Molecule: Naringinine [Naringinines]
- effect on cytochrome P450 enzymes [1]: inhibit

Molecule: CC(=O)OC1CC[C@@]2(C)C(=CC(=O)[C@@H]3[C@@H]2CC[C@]2(C)C(=O)CC[C@@H]32)C1 (stereo partly drawn) [Formula 7-Keto, 3-acetyl-7-oxo-dehydroepiandrosterone]
- body weight, body mass index (BMI), and waist and hip circumference versus placebo (8-week treatment period): statistically significant reductions
- tolerability / adverse events (8-week treatment period): well tolerated and no serious adverse events were reported
- effect on testosterone levels (human, in vivo): does not increase testosterone levels

Molecule: CCN[C@@H](C)Cc1cccc(C(F)(F)F)c1 [dexfenfluramine]
- weight lost [4]: 15.2+/−9.5 lbs
